Laboratory results reported in US8629240B2, “Peptide ligands for clusterin and uses thereof” (National Research Council of Canada, priority 2009, dated 2014).

What was measured:
[1] = test system: 4T1 tumor and organs (liver, spleen, pancreas, kidney, heart, lungs); experiment: Confocal microscopy of probe distribution in 4T1 tumor and organs; type: in vivo, mouse; settings: 25 nmoles P3378-DL680, 15 min post-injection, liver, spleen, pancreas, kidney, heart, lungs
Protocol: Confocal microscopy was used to evaluate the distribution of the P3378-DL680 probe in the 4T1 tumor and various organs (liver, spleen, pancreas, kidney, heart, lungs), harvested 15 min post-injection. […] DAPI staining of the nuclei was used to visualize tissue morphology.

[2] = test system: 4T1 tumor
Protocol: As a model system, 4T1 mouse mammary carcinoma cell line cells were used to generate tumors in syngeneic BALB/c mice. […] Six to eight weeks old female BALB/c mice were obtained from Charles River. […] A 50 μl 1:1 solution of sterile Matrigel and saline, or the same solution containing 4T1 mouse mammary tumor cells (5×10^6 cells), was injected subcutaneously into the right hind thigh of the animal. Clippers and Nair were used to remove hair from the injection site as well as the lower back and the left thigh of the animals prior to the Matrigel and tumor cell injections. When tumors measured ˜0.5 to 0.8 cm in diameter (6-8 days), the tumor-bearing mice were subjected to in vivo imaging.
Animals were imaged using the following procedures. Animals were anesthetized using isoflurane (3% in O2 at 2 L/min). Prior to the injection of the labeled peptides, animals were subjected to a full body scan to obtain a background fluorescence image. P3378-Alexa680 or P3378R-Alexa680 was administered (25 nmol in 100 μL sterile saline) via the tail vein using a 0.5-ml insulin syringe with a 27-gauge fixed needle. Immediately after, the animal was placed on the heated animals plate (39° C.) of the ART eXplore Optix MX2 imaging system (Advanced Research Technologies, Montreal, Canada). Laser power and counting time per pixel were optimized at 9.6 μW and 0.5 s, respectively. These values remained constant during the entire experiment. The raster scan interval was set at 1.5 mm and was held constant during the acquisition of each image. The data were recorded as Temporal Point-Spread Functions (TPSF), and fluorescence intensity and fluorescence lifetime maps were generated. All images were analyzed using the ART Optix OptiView™ software. Volume data and 3D images were reconstructed using the ART OptiView™ 3D Reconstruction Software Module. All animals were euthanized after the imaging experiments.
Animals were imaged in the ART Optix MX2 small animal imager using three approaches: • a. Mice were injected intravenously (i.v.) via the tail vein with either 5 nanomoles of P3378 peptide labeled with Alexa680, or P3378R peptide labeled with Alexa680; • b. Mice were injected intravenously (i.v.) via the tail vein with either 25 nanomoles of P3378 peptide labeled with Alexa680, or P3378R peptide labeled with Alexa680; • c.

[3] = target: T1, rhCLU (recombinant human clusterin) (Homo sapiens, UniProt P10909); experiment: SPR biosensor analysis, rhCLU flowed over immobilized peptide; type: binding
T1 construct: made in house; host or cells: HEK-293 cells
Excerpt: Peptides were immobilized on research-grade CM5 sensor chips by a maleimide coupling method. CM5 sensor chips (research grade) and EDC were purchased from Biosensor AB (Uppsala, Sweden). This thiol coupling generates a stable thioether bond between reactive maleimide groups on the sensor chip surface and the thiol groups of the peptides. A heterobifunctional reagent, SMCC-hydrazide (4-[N-maleimidomethyl]cyclohexane-1 carboxylhydrazide; 99.5% pure; purchased from Molecular Biosciences Inc. (Boulder, Colo.)), was used to introduce reactive maleimido groups to the sensor surface. Immobilization was performed at 25° C. at a flow rate of 5 μL/min. A continuous flow of the HBS-EP buffer (20 mM HEPES, 150 mM NaCl, 3.4 mM EDTA and 0.05% Tween™-20 at pH 7.4) was maintained over the sensor surface. The carboxylated dextran matrix on the sensor surface was activated by an injection of 50 μL of a freshly mixed solution containing 172 μL of 1.2 mM […] (EDC) in 100 mM MES buffer at pH 5.00, and 28 μL of 17.8 mM SMCC-hydrazide in 40% DMF. The ratio of the SMCC:EDC was 2.5:1. Peptide-coupled surfaces were generated by injecting peptides (30-100 μg/ml) in 100 mM MES buffer (at pH 5.0). The amount of peptide immobilized on the activated surface was controlled by altering the contact time with the peptide solution and was between approximately 400 and 500 RU, or 400-500 pg peptide/mm^2. The immobilization procedure was completed by a 50 μL injection of 50 mM cysteine in 1 M sodium chloride and 0.1M sodium acetate (pH 4) to quench excess active maleimide groups.
Protein-peptide interactions were followed using a BIAcore 3000 instrument (Biosensor AB, Uppsala, Sweden). All binding experiments were carried out at 25° C. under a continuous flow of the HBS-EP buffer (20 mM HEPES, 150 mM NaCl, 3.4 mM EDTA and 0.05% Tween-200) at pH 7.4 over the sensor surface at a flow rate of 20 μL/min. Different concentrations of rh-clusterin in the HBS-EP buffer were injected over the peptide-derivatized sensor chips. Dissociation was monitored for up to 300 s post-injection. The surfaces were fully regenerated by 15 s injection of an HBS-EP buffer solution containing 5 mM NaOH. […] Reference responses from control flow cells, containing unmodified dextran surfaces, were subtracted from peptide-containing flow cells, for each analyte injection using the BiaEvaluation software version 3.0 (Biacore AB, Uppsala, Sweden).
The resulting sensorgrams were used for kinetic rate determination through global fitting of the experimental data to a simple 1:1 Langmuir binding model. […] Affinity data (KD) from the binding studies were obtained by plotting the response in RU at the steady state, Req, versus the concentration of clusterin, C, and by fitting these curves to a one-site binding model, Req=C*xRmax/(C+KD) where Rmax is the value in RU at saturation and Req is the observed optical change in RU at each given C.

[4] = global fit, one-to-one Langmuir binding model, 25° C.

T1 sequence (P10909 23-227 limits assumed): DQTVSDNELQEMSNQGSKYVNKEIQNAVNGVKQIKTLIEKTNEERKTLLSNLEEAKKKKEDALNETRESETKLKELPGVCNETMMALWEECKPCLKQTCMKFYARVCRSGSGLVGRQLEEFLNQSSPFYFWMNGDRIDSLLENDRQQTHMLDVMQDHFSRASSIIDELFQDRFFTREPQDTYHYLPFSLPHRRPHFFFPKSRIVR
T1 sequence (P10909 228-449 limits assumed): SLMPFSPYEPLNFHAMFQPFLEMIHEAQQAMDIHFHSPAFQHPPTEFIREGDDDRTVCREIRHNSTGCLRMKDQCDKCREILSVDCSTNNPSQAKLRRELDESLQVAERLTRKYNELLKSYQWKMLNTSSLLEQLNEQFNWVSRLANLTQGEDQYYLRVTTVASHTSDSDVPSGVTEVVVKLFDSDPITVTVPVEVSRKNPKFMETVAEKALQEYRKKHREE

With `CC(C)C[C@H](NC(=O)[C@@H]1CCCN1C(=O)[C@@H](N)Cc1c[nH]cn1)C(=O)N[C@@H](CO)C(=O)N[C@@H](CCCCN)C(=O)N[C@@H](Cc1c[nH]cn1)C(=O)N1CCC[C@H]1C(=O)N[C@@H](Cc1ccc(O)cc1)C(=O)N[C@@H](Cc1c[nH]c2ccccc12)C(=O)N[C@@H](CO)C(=O)N[C@@H](CCC(N)=O)C(=O)N1CCC[C@H]1C(=O)N[C@@H](CO)C(=O)NCC(=O)N[C@@H](CO)C(=O)NCC(=O)N[C@@H](CS)C(=O)O` [P3378] the “detection in the other organs” value [1] was “could not be detected”, the “AUT/AUN ratio as a function of time: behaviour after the initial accumulation” value ([2]; co-injection of P3378-Dylight680 and P3378R-Dylight800, 25 nanomoles each i.v.) was “remains at the tumor site” and the “residence at the tumor site” value ([2]; co-injection of P3378-Dylight680 and P3378R-Dylight800, 25 nanomoles each i.v., 6 animals) was “resided much longer at the tumor site”. For the same molecule, the “time post-injection up to which both peptides accumulate at the tumor site at the same rate” value ([2]; co-injection, AUT/AUN ratio) was roughly 60 min, the “sequence dependence of the interaction with clusterin” value ([3]; concluded from scrambled peptides) was “sequence dependent” and the koff [3, 4] was 0.0052 ± 0.0002 s⁻¹. It also gave a kon [3, 4] of 17200 M⁻¹ s⁻¹ and a Kd ([3]; global fit, one-to-one Langmuir binding model, read-out: Kd (global kinetic fit)) of 300 nM.
